# Source: ChEMBL document CHEMBL2396642, “Discovery of novel series of 6-benzyl substituted 4-aminocarbonyl-1,4-diazepane-2,5-diones as human chymase inhibitors using structure-based drug design” (Bioorg Med Chem, 2013)
# Assays:
# Neutrophil elastase = target: T1, Neutrophil elastase (Homo sapiens, UniProt P08246); test: Inhibition of human neutrophil elastase using MeOSuc-Ala-Ala-Pro-Val-pNA as substrate preincubated for 10 mins followed by substrate addition measured after 10 mins by fluorescence assay
# T1 sequence (P08246 whole entry): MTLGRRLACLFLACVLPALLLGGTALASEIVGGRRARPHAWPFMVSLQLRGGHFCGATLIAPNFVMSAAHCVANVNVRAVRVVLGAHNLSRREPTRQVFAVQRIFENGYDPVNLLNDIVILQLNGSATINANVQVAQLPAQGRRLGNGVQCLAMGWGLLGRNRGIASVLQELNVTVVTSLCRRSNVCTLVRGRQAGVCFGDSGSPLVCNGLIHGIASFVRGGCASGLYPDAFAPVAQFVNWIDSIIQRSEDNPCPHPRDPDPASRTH
# Cathepsin G = target: T2, Cathepsin G (Homo sapiens, UniProt P08311); test: Inhibition of human neutrophil cathepsin G using Boc-Gln-Ala-Arg-MCA as substrate preincubated for 10 mins followed by substrate addition measured after 10 mins by fluorescence assay
# T2 sequence (P08311 whole entry): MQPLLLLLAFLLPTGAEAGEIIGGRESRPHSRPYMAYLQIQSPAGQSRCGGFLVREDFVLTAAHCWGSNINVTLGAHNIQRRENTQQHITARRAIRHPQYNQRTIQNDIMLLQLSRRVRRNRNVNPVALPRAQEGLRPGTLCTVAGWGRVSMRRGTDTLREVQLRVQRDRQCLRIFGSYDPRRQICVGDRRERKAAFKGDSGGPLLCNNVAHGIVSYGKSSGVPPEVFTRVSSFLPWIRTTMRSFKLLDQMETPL
# [1] = Inhibition of bovine pancreatic alpha-chymotrypsin using Suc-Ala-Ala-Pro-Phe-MCA as substrate preincubated for 10 mins followed by substrate addition measured after 10 mins by fluorescence assay; parameters: species or system Bos taurus
IC50 (Neutrophil elastase),IC50 (Cathepsin G),IC50 [1],Compound
100 µM,,> 100 µM,CC[C@@H](NC(=O)N1CC(=O)NC[C@@H](Cc2cc(Cl)ccc2OC)C1=O)c1ccc(C(=O)O)c(N)c1
> 100 µM,7.8 µM,> 88 µM,CC[C@@H](NC(=O)N1CC(=O)NC[C@@H](Cc2cc(Cl)ccc2OC)C1=O)c1cc(C(=O)O)co1

# More lines, now with the values behind:
Compound,IC50 (Neutrophil elastase),IC50 (Cathepsin G),IC50 [1]
CC[C@@H](NC(=O)N1CC(=O)NCC(Cc2cc(Cl)ccc2OC)C1=O)C(=O)Nc1cccc(N)c1 (some centres undefined),> 10 µM,> 10 µM,> 10 µM
CC[C@@H](NC(=O)N1CC(=O)NCC(Cc2cc(Cl)ccc2OC)C1=O)C(=O)Nc1cccc(C(=O)O)c1 (some centres undefined),> 10 µM,8.5 µM,> 10 µM
CC[C@@H](NC(=O)N1CC(=O)NCC(Cc2cc(Cl)ccc2OC)C1=O)C(=O)Nc1nnn[nH]1 (some centres undefined),> 10 µM,> 10 µM,> 10 µM
